Source: patent US10330673B2, “Fluorescent chemical sensor for biological amines” (The Curators of the University of Missouri, priority 2013, dated 2019)

Key:
[1] = Fluorescence response mode toward catecholamines; assay type: binding; conditions: catecholamines norepinephrine and dopamine
[2] = Fluorescence titration of sensor with dopamine; assay type: binding; conditions: for Ka: pH 5.0, 37° C.
Protocol: Fluorescence spectra were recorded on a Shimadzu RF-5301 PC spectrofluorometer at 37° C. A 1 mg/mL stock solution of I-2 in DMSO was prepared. A stock solution of I-2 in buffer (1×10^−5 M, 25 mM HEPES, 50 mM Na2S2O3, pH=5.0) was prepared. Norepinephrine, dopamine, epinephrine, and glutamate stock solutions were prepared by separately dissolving the analytes at the concentration to be used in the titration with the buffered stock solution of I-2 (thus avoiding dilution of I-2 during the experiment). I-2 was titrated with aliquots of analyte solution. The sensor was excited at 488 nm with slit widths of 5 nm.
Fluorescence spectra were recorded on a Shimadzu RF-5301 PC spectrofluorometer at 37° C. A separate 1 mg/mL stock solution of each coumarin-3-aldehyde derivative in DMSO was prepared. An aqueous stock solution of each derivative (10 μM) in buffer (25 mM HEPES, 50 mM Na2S2O3, pH=5.0) was prepared. Norepinephrine, dopamine, glutamate, and epinephrine stock solutions were prepared by separately dissolving the solid analytes at the concentration to be used in the titration with the buffered stock solutions described above and thus, avoiding dilution of the sensor during the experiment. The benzene-based NS521 derivatives were excited at 488 nm. The thiophene-based derivatives were excited at 515 nm.

[3] = Fluorescence quantum yield, unbound fluorophore; assay type: physicochemical; conditions: no amine guest (sensor alone)
Protocol: Steady-state fluorescence spectroscopic studies were performed using a Horiba Scientific Fluorolog-3 Model FL3C-111 spectrofluorometer and data was collected and analyzed using HJY FluorEssence™ 3.5.1.20 software package. UV-visible spectra were obtained on a Varian Cary 1E UV-visible spectrophotometer. A stock solution of each benzene- or thiophene-based coumarin-3-aldehyde derivative (1 μM) in buffer (25 mM HEPES, 50 mM Na2S2O3, pH=5.0) was prepared. Each solution contained 1% (v/v) DMSO as a cosolvent except as noted. The slit width was 2 nm for both excitation and emission. The bound benzene- and thiophene-coumarin-3-aldehyde derivatives contained 500 mM glutamate (pH=5.0).
To determine the relative quantum yield of fluorescence (Φfl) for the benzene-based derivatives, a 1.0 μM solution of fluorescein (absolute Φfl=0.85) in 0.1 N NaOH (pH 13) was used as a fluorescence standard. The unbound derivatives were excited at 473 nm and the bound derivatives were excited at 488 nm. To determine the relative quantum yield of fluorescence (Φfl) for the thiophene-based derivatives, a 1.0 μM solution of rhodamine B (absolute Φfl=0.31) in water (pH 7) was used as a fluorescence standard. The unbound derivatives were excited at 473 nm and the bound derivatives were excited at 515 nm. Quantum yields were obtained in triplicate and calculated as per the following equation: […]

[4] = tested on: epinephrine-enriched chromaffin cells; test: Live-cell confocal imaging with Compound I-2, epinephrine-enriched cells; assay type: cell-based, bovine; conditions: 0.1 μM
Protocol: Chromaffin cells were separated into norepinephrine-enriched and epinephrine-enriched fractions by centrifugation on a Percoll gradient. Both populations were independently incubated with a 0.1 μM solution of Compound I-2 at 37° C. for 30 minutes and then washed to remove excess sensor and plated.
Chromaffin cells were isolated from bovine adrenal glands as previously described. Following centrifugation at 18° C. at 13,000 rpm for 45 minutes in the Percoll gradient, chromaffin cells separate into fractions enriched with either epinephrine-enriched cells (denser band) and norepinephrine-enriched cells (lighter band). Moro, M. A.; Lépez, M. G.; Gandía, L.; Michelena, P.; Garcia, G. Separation and culture of living adrenaline- and noradrenaline-containing cells from bovine adrenal medullae. Anal. Biochem. 1990, 185, 243-248. Over 90% of the catecholamine content found in the cells in the denser fraction are epinephrine, whereas approximately 67% of the catecholamine content in the lighter fraction are norepinephrine. Liu, X.; Barizuddin, S.; Shin, W.; Mathai, C. J.; Gangopadhyay, S.; Gillis, K. D. Microwell device for targeting single cells to electrochemical microelectrodes for high-throughput amperometric detection of quantal exocytosis. Anal. Chem. 2011, 83, 2445-2451. The two cell fractions were collected from the Percoll gradient with careful pipetting and separately cultured. […]

[5] = Table 2, analyte dopamine, benzene-based compounds I, excited at 488 nm

- Quantum Yield (Φ) [3]: 0.0029
SMILES: CCN(CC)c1ccc2c(-c3ccc(OC)cc3)c(C=O)c(=O)oc2c1 [Compound I-2, 7-diethylamino-3-formyl-4-(4′-methoxyphenyl)coumarin]
- mode of fluorescence response [1]: turn-on fluorescent sensor
- F.E. [2, 5]: 2.98
- Ka [2, 5]: 112.10 M⁻¹
- Ka ([2]; amine guest dopamine, fluorescence spectroscopy, λex = 488 nm, λem = 521 nm): 112 M⁻¹
- Isat/Io (λex = 488 nm) ([2]; amine guest dopamine, intensity at saturation from fit to binding isotherm): 3.0
- cell fluorescence, confocal microscopy ([4]; 37° C., 30 minutes, 488 nm excitation (bound sensor)): marginal fluorescence
- cell fluorescence, confocal microscopy ([4]; excited at 440 nm (unbound sensor)): No significant fluorescence
